Experimental data as given in the supplement of paper PMC10307832.

Assays:
Experiment in all cases: relative viability (nuclei count vs DMSO), 5 days (fraction); higher = more cells survive
[1] = compound: C1CC(C1)(C(=O)O)C(=O)O.[NH2-].[NH2-].[Pt+2] [Carboplatin] + C[C@@H](Oc1cc(-c2cnn(C3CCNCC3)c2)cnc1N)c1c(Cl)ccc(F)c1Cl [Crizotinib] (partner 1 µM)
Procedure, shortened: (§1)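 After 5 days of treatment, lung cancer cells in 1536-well plates were fixed and stained in a single step (final 0.05% Triton X-100, 1% formaldehyde, 1 ug/ml Hoechst) and their nuclei counted on 4× images. Treatment had been applied by pin tool the day after seeding as one drug alone or as a fixed anchor-drug dose with five library-drug doses (not always all listed) in √10 steps. Relative viability is the nuclei count of treated wells divided by that of vehicle wells, and values are medians of duplicate plates.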

[2] = compound: CC[C@H](C)N1C=C(C2=C(C=C(C=C21)C3=CN=C(C=C3)N4CCNCC4)C(=O)NCC5=C(C=C(NC5=O)C)C)C [GSK126] + CC(=O)c1c(C)c2cnc(Nc3ccc(N4CCNCC4)cn3)nc2n(C2CCCC2)c1=O [Palbociclib] (partner 0.5 µM)
Procedure, shortened: as §1

[3] = compound: NS(=O)(=O)OC[C@@H]1C[C@@H](n2ccc3c(N[C@H]4CCc5ccccc54)ncnc32)C[C@@H]1O [MLN4924] + N=C(N)NC(=N)NCCc1ccccc1 [Phenformin] (partner 250 µM)
Procedure, shortened: as §1

[4] = compound: NS(=O)(=O)OC[C@@H]1C[C@@H](n2ccc3c(N[C@H]4CCc5ccccc54)ncnc32)C[C@@H]1O [MLN4924] + O=C(c1cc(Cc2n[nH]c(=O)c3ccccc23)ccc1F)N1CCN(C(=O)C2CC2)CC1 [Olaparib] (partner 8 µM)
Procedure, shortened: as §1

What does the source list for UMC-11?
relative viability ([1]; first compound 0.08 µM): 0.721; relative viability ([1]; first compound 0.253 µM): 0.652; relative viability ([1]; first compound 0.8 µM): 0.515; relative viability ([1]; first compound 2.53 µM): 0.484; relative viability ([1]; first compound 8 µM): 0.301; relative viability ([2]; first compound 0.08 µM): 0.353; relative viability ([2]; first compound 0.253 µM): 0.32; relative viability ([2]; first compound 0.8 µM): 0.328; relative viability ([2]; first compound 2.53 µM): 0.405; relative viability ([2]; first compound 8 µM): 0.344; relative viability ([3]; first compound 0.04 µM): 0.322; relative viability ([3]; first compound 0.1265 µM): 0.287; relative viability ([3]; first compound 0.4 µM): 0.266; relative viability ([3]; first compound 1.265 µM): 0.185; relative viability ([3]; first compound 4 µM): 0.189; relative viability ([4]; first compound 0.04 µM): 0.408; relative viability ([4]; first compound 0.1265 µM): 0.246; relative viability ([4]; first compound 0.4 µM): 0.255; relative viability ([4]; first compound 1.265 µM): 0.154; relative viability ([4]; first compound 4 µM): 0.138
